Experimental data from patent US20050137135A1 (priority 2002, published 2005).
Entries after “also recorded” stand apart in the source; their conditions may differ. Blank lines part the entries; values can stand above or below the compound they belong to. Square brackets hold non-standard residues; d marks the D form. Ends that are not written are not given here. Peptide text beside a SMILES is read from it.

What was measured:
[1] = target: T1, rat pancreatic islet (wild type) GIP-receptor stably expressed on CHO-K1 cells (rat) (UniProt P43219); test: displacement of 125I-GIP from intact CHO-K1 cells expressing rat GIP receptor, 10 µM peptide
T1 sequence (looked up): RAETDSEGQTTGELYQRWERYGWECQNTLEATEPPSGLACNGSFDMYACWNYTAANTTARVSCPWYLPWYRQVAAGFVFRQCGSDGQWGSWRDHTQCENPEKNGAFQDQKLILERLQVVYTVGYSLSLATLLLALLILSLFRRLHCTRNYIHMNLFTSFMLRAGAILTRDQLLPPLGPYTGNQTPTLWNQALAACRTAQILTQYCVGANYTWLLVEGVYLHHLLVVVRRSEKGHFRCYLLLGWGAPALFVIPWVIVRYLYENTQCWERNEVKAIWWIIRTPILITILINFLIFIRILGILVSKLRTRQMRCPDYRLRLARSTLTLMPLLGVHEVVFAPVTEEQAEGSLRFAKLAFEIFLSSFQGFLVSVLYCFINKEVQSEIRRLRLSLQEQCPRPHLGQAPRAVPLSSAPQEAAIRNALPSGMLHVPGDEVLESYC

[2] = test system: INS-1 (832/13) cells; test: Cell survival during glucose deprivation (CYQUANT); assay type: cell-based; settings: inhibitor added 15 min prior to final 24 h culture, 100 nM GIP
Method: (§1) Cell passages 45-60 were used.
Cells were seeded into 96-well plates (5×10^4 cells/well) prior to experimentation. […] Cells were quantified using the CYQUANT™ assay system (Molecular Probes, Eugene, Oreg., USA) according to the manufacturers' protocol.
Cell survival was assessed in the presence of prolonged glucose deprivation.

[3] = target: T2, DPIV (dipeptidyl peptidase IV) (Sus scrofa, UniProt P22411); test: Determination of DPIV resistance by MALDI-TOF mass spectrometry; assay type: in vitro ADME; settings: purified kidney DPIV, 0.04 M Tris buffer pH 7.6, up to 24 h, MALDI-TOF MS; read-out: half life after incubation with DP IV
T2 construct: The hydrolysis of peptide analogues by purified kidney DPIV was studied as described previously [12]; from tissue; host or cells: kidney
Method: The hydrolysis of peptide analogues by purified kidney DPIV was studied as described previously. […] Samples were removed from the incubation mixture and prepared for MALDI-TOF mass spectrometry, as described in Pauly, […]., Pederson, R. A., and Demuth, H. U.

[4] = target: T3, rat pancreatic islet (wild type) GIP-receptor (Rattus norvegicus, UniProt P43219); test: cAMP production in CHO-K1 cells expressing the GIP-receptor (wtGIP-R1 cells); assay type: cell-based; settings: basal cyclic AMP = 2.737 ± 0.079 fmol/1000 cells; for cAMP Production (Fold Basal) 10 μM: 10 μM peptide
T3 construct: expressed in transfected cells; host or cells: CHO-K1 (Chinese hamster ovary)
T3 sequence (P43219 19-455): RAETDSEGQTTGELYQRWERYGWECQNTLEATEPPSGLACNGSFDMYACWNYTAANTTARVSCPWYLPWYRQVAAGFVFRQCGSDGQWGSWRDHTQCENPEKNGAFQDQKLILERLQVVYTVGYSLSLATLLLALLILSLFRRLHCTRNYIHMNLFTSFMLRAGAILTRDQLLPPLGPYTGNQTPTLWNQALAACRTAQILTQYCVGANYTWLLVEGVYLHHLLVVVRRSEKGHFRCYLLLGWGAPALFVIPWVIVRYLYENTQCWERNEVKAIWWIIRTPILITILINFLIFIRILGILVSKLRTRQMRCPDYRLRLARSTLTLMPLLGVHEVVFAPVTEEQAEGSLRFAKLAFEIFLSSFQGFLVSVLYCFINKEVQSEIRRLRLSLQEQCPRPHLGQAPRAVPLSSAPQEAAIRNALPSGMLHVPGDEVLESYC
Method: (§2) Cells were cultured in DMEM/F12, supplemented with 10% newborn calf serum, 50 units/ml penicillin G, and 50 μg/ml streptomycin (Culture media and antibiotics from Gibco BRL, Life Technologies). Cells were grown in 75 cm^2 flasks until 80-90% confluent, when they were split and seeded onto 24 well plates at a density of 50,000 cells/well. Experiments were carried out 48 h later.
Cells were extracted with 70% ethanol and cAMP levels measured by radioimmunoassay (Biomedical Technologies, Stoughton, Mass.). Data are expressed as fmol/1000 cells or % maximal GIP1-42-stimulated cAMP production (inhibition experiments).

[5] = target: T3, rat pancreatic islet (wild type) GIP-receptor; test: biochemical; assay type: binding
Method: as §2
Binding studies using ^125I-labeled spGIP1-42, purified by high performance liquid chromatography (HPLC), were performed essentially as described previously-[21]. wtGIP-R1 Cells (1-5×10^5/well) were washed twice at 4° C. in binding buffer (BB), consisting of DMEM/F12 (GIBCO), 15 mM HEPES, 0.1% bovine serum albumin (BSA), 1% Trasylol (aprotinin; Bayer), pH 7.4. They were incubated for 12-16 h at 4° C. with ^125I-spGIP (50,000 cpm) in the presence or absence of unlabeled GIP1-42 or analogue. Following incubation, cells were washed twice with ice cold buffer, solubilized with 0.1 M NaOH (1 ml), and transferred to culture tubes for counting of cell-associated radioactivity. Nonspecific binding was defined as that measured in the presence of 1 μM GIP1-42 or GIP1-30, and specific binding expressed as % of binding in the absence of competitor (% B/Bo).

[6] = test system: INS-1 (832/13) cells; test: Glucose dependent β-cell proliferation (CYQUANT cell quantification); assay type: cell-based
Method: as §1
Cells were seeded into 96-well plates (5×10^4 cells/well) prior to experimentation. […] Thereafter, cells were washed with KRBH (115 mM NaCl, 4.7 mM KCl, 1.2 mM KH2PO4, 10 mM NaHCO3, 1.28 mM CaCl2, 1.2 mM MgSO4 containing 10 mM HEPES and 0.1% bovine serum albumin, pH 7.4) and frozen at −70° C. until assayed. Cells were quantified using the CYQUANT™ assay system (Molecular Probes, Eugene, Oreg., USA) according to the manufacturers' protocol. Final cell numbers were always greater than the initial number plated in assessing cellular proliferation.

T2 sequence (P22411 whole entry): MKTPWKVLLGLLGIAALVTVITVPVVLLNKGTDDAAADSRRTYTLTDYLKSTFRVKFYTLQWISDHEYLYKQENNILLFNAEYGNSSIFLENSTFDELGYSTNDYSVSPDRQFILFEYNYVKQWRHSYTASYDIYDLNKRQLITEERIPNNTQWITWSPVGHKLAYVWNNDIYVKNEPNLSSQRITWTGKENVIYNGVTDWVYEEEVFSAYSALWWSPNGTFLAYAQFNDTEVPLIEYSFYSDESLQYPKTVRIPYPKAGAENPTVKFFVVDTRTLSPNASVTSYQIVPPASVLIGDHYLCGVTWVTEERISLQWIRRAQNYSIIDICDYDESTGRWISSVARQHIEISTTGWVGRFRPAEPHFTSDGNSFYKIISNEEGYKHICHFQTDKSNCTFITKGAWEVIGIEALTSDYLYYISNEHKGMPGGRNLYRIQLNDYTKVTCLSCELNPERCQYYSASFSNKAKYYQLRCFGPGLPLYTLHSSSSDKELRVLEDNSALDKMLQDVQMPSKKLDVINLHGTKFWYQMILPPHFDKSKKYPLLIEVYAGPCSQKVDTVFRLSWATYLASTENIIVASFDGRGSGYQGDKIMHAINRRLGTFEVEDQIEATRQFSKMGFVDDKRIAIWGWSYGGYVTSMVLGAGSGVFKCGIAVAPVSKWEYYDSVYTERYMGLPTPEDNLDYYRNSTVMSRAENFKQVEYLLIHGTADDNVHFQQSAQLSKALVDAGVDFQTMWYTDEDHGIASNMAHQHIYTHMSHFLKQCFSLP

% Displacement at 10 µM [1]: -6.1%
Compound: GIP 1-7NH2 (from UniProt P09681 52-58) (peptide)

Compound: N#CC(=C(/N)Sc1ccccc1N)/C(C#N)=C(\N)Sc1ccccc1N [U0126]
effect of protein kinase inhibitor on GIP-mediated cell survival [2]: Neither of the Mek1/2 inhibitors PD98059 (50 and 100 μM) nor U0126 (10 μM) blocked

Compound: YAEGTFISDYSIAMDKIRQQDFVNWLLAQK-NH2 [GIP1-30a, reference compound]
half-life [3]: < 0.25 h
cAMP Production (Fold Basal) 10 μM [4]: 108 ± 12 Fold Basal
Receptor Binding % Displacement at 10 μM ([5]; 10 μM peptide, 125I-GIP): 99.8 ± 1.2%

Compound: ISDYSIAMDKIRQQDFVNWLLAQK-NH2 [GIP7-30a, reference compound]
half-life [3]: 2.17 ± 0.177 h
cAMP Production (Fold Basal) 10 μM [4]: 0.89 ± 0.06 Fold Basal
cAMP Production (Fold Basal) 20 μM ([4]; 20 μM peptide): 0.85 ± 0.03 Fold Basal
Receptor Binding % Displacement at 10 μM ([5]; 10 μM peptide, 125I-GIP): 99.3 ± 1.0%

Compound: O=S(=O)(NCCNC/C=C/c1ccc(Br)cc1)c1cccc2cnccc12 [H89]
effect of protein kinase inhibitor on GIP-mediated cell survival [2]: lack of effect; also recorded: unable to reverse

Compound: glucagon-like peptide-17-36 [GLP-1]
cell growth, % of that measured in the presence of 5.5 mM glucose ([6]; separate experiment, 100 nM, n=4): 129±4%

Compound: GH: GH, comparator for cell growth in INS-1 cells
cell proliferation, % of growth in the presence of 5.5 mM glucose ([6]; 11 mM glucose, 10 nM, FIG. 15A): 158±9%

Compound: Oc1ccc(-c2nc(-c3ccncc3)c(-c3ccc(F)cc3)[nH]2)cc1 [SB202190]
effect of protein kinase inhibitor on GIP-mediated cell survival [2]: influenced GIP-mediated cell survival

Compound: CC[C@H](C)[C@H](NC(=O)[C@H](CO)NC(=O)[C@H](Cc1ccc(O)cc1)NC(=O)[C@H](CC(=O)O)NC(=O)[C@H](CO)NC(=O)[C@@H](NC(=O)[C@H](Cc1ccccc1)NC(=O)[C@@H](NC(=O)CNC(=O)[C@@H](CCC(=O)O)NC(=O)[C@H](C)NC(=O)[C@@H](N)Cc1ccc(O)cc1)[C@@H](C)O)[C@@H](C)CC)C(=O)N[C@@H](C)C(=O)N[C@@H](CCSC)C(=O)N[C@@H](CC(=O)O)C(=O)N[C@@H](CCCCN)C(=O)N[C@H](C(=O)N[C@@H](CCCNC(=N)N)C(=O)N[C@@H](CCC(N)=O)C(=O)N[C@@H](CCC(N)=O)C(=O)N[C@@H](CC(=O)O)C(=O)N[C@@H](Cc1ccccc1)C(=O)N[C@H](C(=O)N[C@@H](CC(N)=O)C(=O)N[C@@H](Cc1c[nH]c2ccccc12)C(=O)N[C@@H](CC(C)C)C(=O)N[C@@H](CC(C)C)C(=O)N[C@@H](C)C(=O)N[C@@H](CCC(N)=O)C(=O)N[C@@H](CCCCN)C(N)=O)C(C)C)[C@@H](C)CC [D-Glu^3-GIP1-30] (H-YA[dE]GTFISDYSIAMDKIRQQDFVNWLLAQK-NH2; N-terminus and C-terminus assumed)
half-life [3]: 0.672 ± 0.08 h

Compound: YGEGTFISDYSIAMDKIRQQDFVNWLLAQK-NH2 [Gly^2-GIP1-30a]
half-life [3]: 2.51 ± 0.455 h

half-life [3]: > 0.125 h
Receptor Binding % Displacement at 10 μM ([5]; 10000.0): −3.6 ± 7.8%
Compound: YAEGTF-NH2 [GIP1-6a]
